The values that follow come from PMC6017591, “Design, Synthesis and in Combo Antidiabetic Bioevaluation of Multitarget Phenylpropanoic Acids” (Molecules : A Journal of Synthetic Chemistry and Natural …, 2018).

Structures are written as SMILES.

Assay [1] has as its system STZ-NA induced diabetes mice model. The assay is described as follows: In vivo antidiabetic effect in STZ-NA induced diabetes mice model. Also on record: species or system CD1 mice. The note with it: 100 mg/kg single dose, intragastric. As for the experimental part:
Glibenclamide was used as a positive control, in order to ensure that the damage over β-cells was partial and mice pancreas still produces insulin, that responds to a secretagogue such as sulfonylurea drug used in this work.
CD1 mice (20–25 g) were housed in groups of six (n = 6) under laboratory conditions. Before experimentation, all animals were fasted for 16 h with water ad libitum. All animal procedures were conducted in accordance with the Mexican Federal Regulations for Animal Experimentation and Care (SAGARPA, NOM-062-ZOO-1999), based on US National Institutes of Health Publication #85-23, revised 1985. Non-insulin-dependent diabetes mice model was induced in overnight fasted mice by a single i.p. injection of 100 mg/kg STZ, 15 min before the i.p. administration of 40 mg/kg of NA. Hyperglycaemia was established by the higher plasma glucose concentration, determined by glucometer after 2 weeks. The animals with glycaemia higher than 200 mg/dL were selected for the assay. The diabetic mice were separated into […] of six animals each (n = 6). Mice of experimental groups were administered with a suspension of the molecules 1–3 (100 mg/kg, prepared in 10% (v/v) tween 80). Control group mice were similarly treated with 10% tween 80. […] The samples of blood were collected from the caudal vein at 0, 1, 3, 5 and 7 h after administration of each compound. Blood glucose levels were estimated using a commercial glucometer. The percentage variation of glycemia for each group was calculated. Values are expressed as mean ± S.E.M. Statistical significance was estimated by ANOVA.

The next assay addresses GPR40 (Homo sapiens, UniProt O14842). Put plainly: GPR40 agonist calcium flux assay in hGPR40/Gα16/HEK293 cells. The note with it: for Emax at 100 µM: HEK293, read-out: Maximal Response % (100 μM). On the technique in general: Calcium flux is commonly read through the fluorescence of an indicator in the cells.
The test system of the next assay is GLUT-4. Put plainly: Relative mRNA expression of GLUT-4 in 3T3-L1 adipocytes. Type of assay: cell-based. The settings on record: 24 h treatment. The source says:
3T3-L1 fibroblasts were differentiated to the adipocyte phenotype in order to determine the action of compounds on PPARγ and GLUT-4 expression. […] The activation of PPARγ could reduce the glucose levels in diabetic patients due to insulin resistance reduction. […] Several evidences indicate that increased levels of GLUT-4 expression in skeletal muscle are critical for the regulation of glucose homeostasis.
Both assays were achieved as described elsewhere. Briefly: 3T3-L1 fibroblasts (9 × 10^5 cells per well) were cultured in 6-well plates in Dulbecco’s modified Eagle’s medium. After 2 days of confluence, the cells were differentiated to the adipocyte phenotype with 0.5 mM 3-isobutyl-1-methylxanthine, 0.25 μM dexamethasone acetate, and 0.8 μM insulin, for 48 h, followed by insulin alone for other 48 h. To determine the action of compounds on PPARγ and GLUT-4 expression, the cells were treated 24 h. RNA was isolated from cultured cells and two μg of total RNA were reverse-transcripted in a thermocycler. The enzyme was inactivated and finally samples were cooled. […] PCR was conducted and the threshold cycles (Ct) were measured in separate tubes and in duplicate. The ΔCt values were calculated in every sample for each gene of interest. Relative changes in the expression level of one specific gene (ΔΔCt) were calculated.

The target in a further assay is human recombinant AKR1B1 (Homo sapiens, UniProt P15121). Put plainly: Aldose reductase (AKR1B1) inhibition assay.

The term EC50 denotes the concentration at which the effect is half-maximal. What is called IC50 is the concentration needed to halve the response being measured.

GPR40, sequence (O14842 whole entry): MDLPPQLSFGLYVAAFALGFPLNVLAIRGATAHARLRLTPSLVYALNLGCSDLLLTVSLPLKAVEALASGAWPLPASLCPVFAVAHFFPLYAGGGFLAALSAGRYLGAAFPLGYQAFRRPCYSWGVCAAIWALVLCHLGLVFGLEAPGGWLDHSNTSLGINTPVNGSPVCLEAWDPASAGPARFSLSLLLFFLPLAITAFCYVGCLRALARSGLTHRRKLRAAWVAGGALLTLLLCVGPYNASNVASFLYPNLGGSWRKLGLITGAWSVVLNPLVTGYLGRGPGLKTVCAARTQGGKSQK
Method for GPR40: Linoleic acid (LA), one of the endogenous ligands for GPR40, was designated as positive control.
This bioassay was previously described [2]. Briefly: About 4 × 10^4 h GPR40/HEK293 per well were seeded in 96-well plate. After culturing for 24 h, cells were loaded with 2 μmol/L Fluo-4 AM in Hanks’ balanced salt solution at 37 °C for 40 min.
Method for human recombinant AKR1B1: Human recombinant AKR1B1 was purified by electrophoretic homogeneity as previously described [24]. The enzyme activity was corroborated at 37 °C following the decrease of absorbance at 340 nm. […] IC50 values was determined by nonlinear regression analysis. For each curve, five different concentrations of compounds were analyzed [25].

With `O=C(O)CCc1ccc(OCc2cccc(-c3ccccc3)c2)cc1` [Compound 1, 3-[4-(Biphenyl-3-ylmethoxy)phenyl]propanoic acid], the “In vivo antidiabetic activity (in words)” value in assay [1] (STZ-NA diabetic mice) was “lack of in vivo activity”. Also, at GPR40, the EC50 worked out at 0.075 ± 0.02 µM and the Emax at 100 µM came out at 98 ± 10%.

As to `O=C(O)CCc1ccc(OCc2cccc3ccccc23)cc1` [Compound 2, 3-[4-(1-Naphthylmethoxy)phenyl]propanoic acid], the “Increase in GLUT-4 levels (mRNA expression)” value in the assay with GLUT-4 was 2 to 4 times. Also, the “Decrease of blood glucose levels” value in assay [1] (7 h after administration, STZ-NA diabetic mice) is on record as approximately 80%.

For the compound `N#Cc1ccccc1-c1ccc(COc2ccc(CCC(=O)O)cc2)cc1` [Compound 3, 3-{4-[(2′-Cyanobiphenyl-4-yl)methoxy]phenyl} propanoic acid], the “Increase in GLUT-4 levels (mRNA expression)” value with GLUT-4 is on record as 2 to 4 times. The results for the “Glucose lowering effect (variation of glycemia)” value in assay [1] (at 3 h), in assay [1] (at 5 h) and in assay [1] (at 7 h) were −20%, −50% and −60%, respectively.

For the compound `O=C(O)CCc1ccc(OCc2ccc3ccccc3n2)cc1` [Compound 4, 3-[4-(Quinolin-2-ylmethoxy)phenyl]propanoic acid], on GPR40, the EC50 is approximately 100 µM and the Emax at 100 µM came out at 84%.

With `O=C(O)CCc1ccc(OCC(=O)Nc2nc3ccccc3s2)cc1` [Compound 5, 3-{4-[2-(1,3-Benzothiazol-2-ylamino)-2 oxoethoxy]phenyl}propanoic Acid], the IC50 at human recombinant AKR1B1 came to 23.3 µM. On GPR40, the EC50 was more than 100 µM and the Emax at 100 µM was determined as 9.9%. Besides, on GPR40 (calcium assay), the “GPR40 agonistic activity (in words)” value is “inactive”.

Regarding `CCCCC/C=C\C/C=C\CCCCCCCC(=O)O` [LA, Linoleic acid, reference compound], at GPR40, the EC50 turned out to be 8.3 ± 1.7 µM and the Emax at 100 µM turned out to be 100%.
